Measured values: US10544132B2, “Isoindolinone inhibitors of the MDM2-p53 interaction having anticancer activity” (ASTEX THERAPEUTICS LIMITED, priority 2015, dated 2020)

Columns and labels:
MDM2-p53 interaction = MDM2-p53 interaction (Homo sapiens (Human), UniProt Q00987); assay: MDM2-p53 interaction 96-well plate binding assay (ELISA)
SJSA-1 cells = assay: SJSA-1 growth inhibition, sulphorhodamine B (SRB) method (Protocol A); conditions: Homo sapiens, SJSA-1, 72 h, read-out: SJSA-1 IC50 (μM) (Protocol A)
SN40R2 cells = assay: SN40R2 growth inhibition, sulphorhodamine B (SRB) method (Protocol A); conditions: 72 h, read-out: SN40R2 IC50 (μM) (Protocol A)

Sequence of MDM2-p53 interaction (Q00987 whole entry): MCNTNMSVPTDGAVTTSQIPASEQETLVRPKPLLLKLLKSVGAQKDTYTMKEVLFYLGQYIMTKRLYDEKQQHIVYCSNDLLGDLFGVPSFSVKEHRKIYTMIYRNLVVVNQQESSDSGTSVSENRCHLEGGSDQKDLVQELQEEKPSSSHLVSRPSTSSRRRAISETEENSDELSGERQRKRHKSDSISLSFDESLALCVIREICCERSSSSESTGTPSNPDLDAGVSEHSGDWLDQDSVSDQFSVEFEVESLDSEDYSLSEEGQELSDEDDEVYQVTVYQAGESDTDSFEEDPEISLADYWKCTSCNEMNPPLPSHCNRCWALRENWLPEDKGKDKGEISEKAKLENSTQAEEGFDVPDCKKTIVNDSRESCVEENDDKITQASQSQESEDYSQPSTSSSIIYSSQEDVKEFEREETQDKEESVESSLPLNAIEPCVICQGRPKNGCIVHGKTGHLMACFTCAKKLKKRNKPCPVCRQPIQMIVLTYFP

| SMILES | IC50 (MDM2-p53 interaction) | IC50 (SJSA-1 cells) | IC50 (SN40R2 cells) |
| --- | --- | --- | --- |
| [2H]C([2H])(O)C1(C([2H])([2H])O[C@]2(c3ccc(Cl)cc3)c3ccc(C(C)(C)O)cc3C(=O)N2Cc2ccc(Cl)cc2S(C)(=O)=O)CC1 [Example 36, (3R)-2-[(4-chloro-2-methanesulfonylphenyl)methyl]-3-(4-chlorophenyl)-3-({1-[hydroxy(^2H2)methyl]cyclopropyl}(^2H2)methoxy)-6-(2-hydroxypropan-2-yl)-2,3-dihydro-1H-isoindol-1-one] | 0.0019 µM | 0.078 µM | 17 µM |
| CC(C)(O)c1cc(F)c2c(c1)C(=O)N(Cc1ccc(Cl)cc1)[C@@]2(OCC1(CO)CC1)c1ccc(Cl)cc1 [Example 2, (3R)-3-(4-chlorophenyl)-2-[(4-chlorophenyl)methyl]-4-fluoro-3-{[1-(hydroxymethyl)cyclopropyl]methoxy}-6-(2-hydroxypropan-2-yl)-2,3-dihydro-1H-isoindol-1-one] | – | – | 17 µM |
